The values below come from US10752881B2, “Trans-differentiation of differentiation cells” (Helmholtz Zentrum München-Deutsches Forschungszentrum für …, priority 2014, dated 2020).

Data set [1] relates to astroglial cells transfected with Ascl1-RFP. In words: Lipid peroxidation (C11-Bodipy staining) and glutathione detection during reprogramming. The following applies: co-transfected with Ascl1, 2 DPT. The class given is cell-based, mouse. The text has this:
C, Micrographs show oxidized lipids (C11-Bodipy staining) at 2 DPT in astroglial cells transfected with Ascl1-REP alone or in combination with EE-Bcl-2 or A-Bcl-2. Note higher levels of oxidation in cells transfected with only Ascl1 or Ascl1+EE-BCl-2 (black arrows) compare to cells co-transfected with Ascl1+A-Bcl-2 (black arrowheads). High magnification pictures show partial co-localization of C11-Bodipy staining and DAPI in Ascl1-expressing cells contrarily to cells co-transfected with Ascl1+EE-Bcl-2 (see arrows).
D, Pictures show glutathione (GSH) detection of same cells shown in C. Cells with normal or increased levels of GSH are depicted by arrowheads and arrows respectively.
These observations open the question of why EE-Bcl-2 has no effect in neuronal reprogramming while A-Bcl-2 has.
For the detection of oxidative stress we used CellROX green Reagent (Life technologies, C10444) according with the described protocol and fluorescence was detected by microscope (see below).

Data set [2] relates to Mouse embryonic fibroblasts (MEFs). The experiment in a line: Fibroblast-to-neuron reprogramming of MEFs with retroviral vectors, β-III-tubulin immunostaining. It is filed as cell-based.
The subject of data set [3] is postnatal mouse astrocytes. The following applies: co-transfected with Ascl1-RFP, 4 days.
Procedure: (C) Histogram of astroglial cultures transfected with Ascl1-RFP-encoding plasmid alone or in combination with WT-Bcl-2, EE-Bcl-2 or A-Bcl-2 at 4 days post-transfection (DPT). The number of transfected cells (RFP+) at final time point (4 DPT) was normalized to the initial number of transfected cells (1 DPT) to calculate the % of survival. The % of neuronal conversion was analysed by β-III-tubulin immunostaining and normalized to total number of RFP+ cells at the end of the experiment. Error bars indicate ±SD. *p<0.05, **p<0.01; ANOVA Tukeys post-test.
A, Quantifications at 5 DPT (days post-transfection) showing the effect of the inhibitor of ferroptosis, α-toc and the inhibitor of apoptosis, ZVAD in survival/efficiency of conversion of astroglial cells transfected with Ascl1-RFP.
C, Percentage of neurons in astroglial cells transfected with Ascl1-encoding plasmid alone or in combination with Bcl-2 and/or Vdr at 5 DPT after 4 days of treatment with calcitriol or untreated.
After removal of the meninges, grey matter tissue was dissected from P5-P7 cerebral cortex of C57BL/6J mice and dissociated mechanically. Subsequently, cells were centrifuged for 5 min at 1000 rpm, re-suspended, and plated in medium consisting of DMEM/F12 (Gibco), 3.5 mM glucose (Sigma), 10% fetal calf serum (Gibco), 5% horse serum (Gibco), penicillin/streptomycin (Gibco) and supplemented with B27 (Gibco), 10 ng/mL epidermal growth factor (EGF, Roche) and 10 ng/mL fibroblast growth factor 2 (FGF2, Roche). After one week expansion cells were harvested using trypsin/EDTA (Gibco) and plated onto poly-D-lysine (Sigma-Aldrich) coated glass coverslips in 24-well plates (BD Biosciences) or directly onto the plastic for time lapse experiments at a density of 60,000 cells per well in the same medium. After 24 hours cells were either transfected with plasmid or infected with retroviral vectors and after further 24 hours medium was changed to differentiation medium composed of DMEM/F12 high glucose with GlutaMAX, penicillin/streptomycin and B27 supplement (Gibco) to allow neuronal differentiation.
For transfection DNA-liposome complexes were prepared in Optimem medium (Invitrogen) using the retroviral plasmids described below and Lipofectamine 2000 (Invitrogen). Astrocyte cultures were exposed to DNA-liposome complexes at a concentration of 0.5 μg DNA per 400 μl of Optimem medium for 4 hours and cultured after that in the differentiation medium as above.
Cells were fixed in 4% paraformaldehyde (PFA) in phosphate-buffered saline (PBS) for 10 min at room temperature (RT), washed in PBS and pretreated in 0.5% Triton X-100 in PBS for 30 min, followed by incubation in 2% BSA and 0.5% Triton X-100 in PBS for 30 min. Primary antibodies were incubated on specimen overnight at 4° C. in 2% BSA, 0.5% Triton X-100 in PBS.
Data set [4] deals with MEFs. The following applies: MyoD + A-Bcl-2 vs MyoD/GFP.

Regarding “A-Bcl-2: S70A recombinant Bcl-2 with reduced ability to interact with Bax, mimics the un-phosphorylated form”, in data set [1], the “effect on lipid peroxidation / oxidative stress (C11-Bodipy)” value was “very efficiently reducing oxidative stress”. The “neuronal conversion in MEFs (β-III-tubulin)” value in data set [2] (Ascl1-based retroviral vectors, 14 days after infection) is above 75%. Also, in data set [2] (Neurog2 + A-Bcl-2 vs Neurog2/RFP), the “increase of proportion of neurons induced from MEFs” value is on record as 6 ×. Also, in data set [2] (Neurog2-based retroviral vectors, 15 days after infection), the “proportion of neurons induced from MEFs, of all infected cells” value is recorded as 63%. In addition, the “effect on cell survival during reprogramming” value in data set [3] is listed as “decreased survival compared to those transfected with WT-Bcl-2- or EE-Bcl-2-encoding plasmids”. The “effect on proportion of neuronal conversion mediated by Ascl1” value in data set [3] (β-III-tubulin) was “increased proportion of neurons induced from the transfected astrocytes”. Moreover, the “speed of conversion into skeletal muscle cells” value in data set [4] is on record as “converted much faster into skeletal muscle cells”.
